One series has as its target T1, NK3 receptor (Homo sapiens, UniProt P29371).
T1 construct: expressed in transfected cells; host or cells: CHO cell line, plasma membrane preparation
T1 sequence (P29371 1-465): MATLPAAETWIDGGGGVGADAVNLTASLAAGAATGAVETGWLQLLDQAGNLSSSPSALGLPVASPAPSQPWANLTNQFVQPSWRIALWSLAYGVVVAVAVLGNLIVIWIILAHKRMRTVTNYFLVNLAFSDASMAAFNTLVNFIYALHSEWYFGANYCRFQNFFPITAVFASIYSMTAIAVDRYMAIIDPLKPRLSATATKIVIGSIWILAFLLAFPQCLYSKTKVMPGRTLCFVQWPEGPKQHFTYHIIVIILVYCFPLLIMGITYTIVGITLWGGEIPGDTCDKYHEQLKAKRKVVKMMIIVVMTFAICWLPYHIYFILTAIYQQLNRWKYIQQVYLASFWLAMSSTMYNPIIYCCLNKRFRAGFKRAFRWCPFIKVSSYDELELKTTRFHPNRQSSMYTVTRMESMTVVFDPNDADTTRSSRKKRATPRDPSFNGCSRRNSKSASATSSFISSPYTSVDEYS
Briefly: NK binding affinity, scintillation proximity assay (SPA), 125I [MePhe7]-NKB. The note with it: plasma membrane from CHO cell lines expressing NK3, read-out: NK3 pKi (converted). How it is done: (§1) The NK binding affinity of the compounds of the invention was determined using the following scintillation proximity assay (SPA) (see H. M. Sarau et al, J. Pharmacol. Experimental Therapeutics 1997, 281(3), 1303-1311; H. M. Sarau et al, J. Pharmacol. Experimental Therapeutics 2000, 295(1), 373-381; G. A. M. Giardina et al J.Med.Chem 1999, 42, 1053-1065). ^125I Substance P, ^125I NKA and ^125I [MePhe7]-NKB were used in the binding SPA of NK1, NK2 and NK3 receptor, respectively. Polystrene Leadseeker WGA-SPA beads (Amersham Biosciences) were mixed with plasma membrane prepared from CHO cell lines expressing NK1, NK2 or NK3 in a bead/membrane ratio of 20:1 (w/w) in assay buffer (75 mM Tris pH 7.8, 75 mM NaCl, 4 mM MnCl2, 1 mM EDTA, 0.05% Chaps, 1 mM PMSF). The mixture was placed on ice for 30 minutes to allow the formation of membrane/bead complex before BSA was added to a final concentration of 1%. After another 30 minutes incubation on ice, the bead/membrane complex was washed twice and suspended in assay buffer. ^125I-labelled ligands were then added to the bead/membrane complex. 30 μl of the resulting mixture was then dispensed into each well of a Nalgen NUNC 384-well plate with 1 μl compound pre-dispensed in 50% DMSO. The plates were then sealed and pulse spun at 1100 rpm. After 3 hours incubation at room temperature with shaking, the plates were spun for 2 min at 1100 rpm and measured in Viewlux imager (PerkinElmer) for 5 minutes with a 618-nm filter. Inhibition of radioactive ligand binding to its respective receptor was measured by the reduction of signal. pKi was calculated using Kd of each radioactive ligand determined in a separate experiment.
On the technique in general: Scintillation proximity formats need no separation of bound from free tracer.

The target of the next series is T2, NK2 receptor (Homo sapiens, UniProt P21452).
T2 construct: expressed in transfected cells; host or cells: CHO cell line, plasma membrane preparation
T2 sequence (P21452 1-398): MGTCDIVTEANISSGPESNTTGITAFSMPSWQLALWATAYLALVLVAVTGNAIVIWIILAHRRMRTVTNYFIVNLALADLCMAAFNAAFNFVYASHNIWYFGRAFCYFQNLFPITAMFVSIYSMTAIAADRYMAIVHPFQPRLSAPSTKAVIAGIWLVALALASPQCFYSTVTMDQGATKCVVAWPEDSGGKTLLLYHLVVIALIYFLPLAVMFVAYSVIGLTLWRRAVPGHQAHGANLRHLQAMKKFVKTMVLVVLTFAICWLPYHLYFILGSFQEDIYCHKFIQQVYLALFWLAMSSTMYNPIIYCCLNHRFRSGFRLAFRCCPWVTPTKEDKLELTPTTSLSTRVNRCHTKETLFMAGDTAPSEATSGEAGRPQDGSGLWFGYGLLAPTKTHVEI
The experiment in a line: NK binding affinity, scintillation proximity assay (SPA), 125I NKA. The note with it: plasma membrane from CHO cell lines expressing NK2, read-out: NK2 pKi (converted). How it is done:
as §1

For another series, the target named is T3, NK1 receptor (Homo sapiens, UniProt P25103).
T3 construct: expressed in transfected cells; host or cells: CHO cell line, plasma membrane preparation
The experiment in a line: NK binding affinity, scintillation proximity assay (SPA), 125I Substance P. The note with it: plasma membrane from CHO cell lines expressing NK1, read-out: NK1 pKi (converted). How it is done:
as §1

The nature of series [1]: Measurement of brain exposure. The format is in vivo. The note with it: rats, orally dosed 3 mg/kg as 1% methylcellulose suspension; brain homogenate concentration vs time over 12 hr. How it is done:
Compounds of the invention were orally dosed (3 mg/kg) to rats as 1% methylcellulose (w/v) suspensions. The rats were sacrificed after set time intervals and the concentration of the compound of the invention in brain homogenate was determined by protein precipitation followed by LC-MS-MS analysis of the extracts against standards prepared in brain homogenate. A graph of brain concentration against time was plotted over a 12 hr period. The area under the curve (AUC, units=hours.ng/g brain) was taken as a measure of brain exposure.

T3 sequence (P25103 whole entry): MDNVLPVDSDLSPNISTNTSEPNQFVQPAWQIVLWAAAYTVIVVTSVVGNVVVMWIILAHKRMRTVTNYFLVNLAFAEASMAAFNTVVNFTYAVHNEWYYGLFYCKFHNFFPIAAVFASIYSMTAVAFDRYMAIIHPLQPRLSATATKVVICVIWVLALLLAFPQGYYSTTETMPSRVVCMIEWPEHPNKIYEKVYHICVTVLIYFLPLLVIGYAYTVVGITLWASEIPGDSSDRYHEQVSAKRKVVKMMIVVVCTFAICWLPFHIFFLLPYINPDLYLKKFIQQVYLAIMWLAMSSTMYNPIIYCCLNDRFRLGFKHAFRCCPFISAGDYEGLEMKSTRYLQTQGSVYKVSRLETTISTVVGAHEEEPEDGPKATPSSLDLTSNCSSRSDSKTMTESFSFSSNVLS

For `O=C(N[C@H](c1cccc(F)c1)C1CC1)c1c(Cn2nccn2)c(-c2ccccc2)nc2ccccc12` [Example 37, 2-Phenyl-3-[1,2,3]triazol-2-ylmethyl-quinoline-4-carboxylic acid [(S)-1-cyclopropyl-1-(3-fluoro-phenyl)-methyl]-amide], the Ki is 2.51 nM at NK3 receptor, 158 nM at NK2 receptor and 631 nM at NK1 receptor. Moreover, the “Brain Exposure (AUC, h · ng/g brain)” value in series [1] is given as 2091 h · ng/g brain.
In the case of `O=C(N[C@H](c1ccccc1)C1CC1)c1c(Cn2ncnn2)c(-c2cccc(F)c2)nc2ccccc12` [Example 45, 2-(3-Fluoro-phenyl)-3-tetrazol-2-ylmethyl-quinoline-4-carboxylic acid ((S)-1-cyclopropyl-1-phenyl-methyl)-amide], the Ki on NK3 receptor was 10 nM; at NK2 receptor it was 251 nM; at NK1 receptor it was 1260 nM. In addition, in series [1], the “Brain Exposure (AUC, h · ng/g brain)” value amounted to 1900 h · ng/g brain.
`O=C(N[C@H](c1cccc(F)c1)C1CC1)c1c(Cn2ncnn2)c(-c2ccccc2)nc2ccccc12` [Example 35, 2-Phenyl-3-tetrazol-2-ylmethyl-quinoline-4-carboxylic acid [(S)-1-cyclopropyl-1-(3-fluoro-phenyl)-methyl]-amide]: the Ki on NK3 receptor was 3.98 nM; at NK2 receptor, 251 nM; at NK1 receptor, 1260 nM. Also, the “Brain Exposure (AUC, h · ng/g brain)” value in series [1] turned out to be 2361 h · ng/g brain.
For `O=C(N[C@H](c1ccccc1)C1CC1)c1c(Cn2nccn2)c(-c2cccc(F)c2)nc2ccccc12` [Example 1, 2-(3-Fluoro-phenyl)-3-[1,2,3]triazol-2-ylmethyl-quinoline4-carboxylic acid ((S)-1-cyclopropyl-1-phenyl-methyl)-amide], the Ki is 10 nM at NK3 receptor, 316 nM at NK2 receptor and 1000 nM at NK1 receptor. In series [1], the “Brain Exposure (AUC, h · ng/g brain)” value is 1896 h · ng/g brain.
